# Test results as given in patent publication US7528140B2, “Substituted pyrrolo[3,2-d]pyrimidines as glycogen synthase kinase (GSK) inhibitors” (Teijin Limited, priority 2002, dated 2009).
# Target: recombinant human GSK-3β (Homo sapiens, UniProt P49841)
# Test: Measurement of GSK-3 enzyme activity inhibition (32P phosphorylation of phospho-glycogen synthase peptide-2)
# Assay type: biochemical
# Settings: 20 μM ATP, 20 minutes at room temperature, read-out: GSK-3 enzyme inhibiting activity (IC50)
# Method: Measurement of GSK-3 Enzyme Activity Inhibition
# After adding 25 μL of phospho-glycogen synthase peptide-2 substrate solution [6 μM phospho -glycogen synthase peptide-2, 20 μM ATP, 16 mM MOPS buffer (pH 7.0), 0.2 mM EDTA, 20 mM magnesium acetate, 0.1 μCi [γ-^32P]ATP (specific activity: approximately 110 TBq/mmol)]to 5 μL of the test compound using 5% dimethylsulfoxide as the solvent, reaction was initiated by further addition of 20 μL of a GSK-3β enzyme solution [10 mU recombinant human GSK-3β, 20 mM MOPS buffer (pH 7.0), 1 mM EDTA, 0.1% polyoxyethylene lauryl ether (23 Lauryl Ether; Brij 35), 5% glycerol, 0.1% β-mercaptoethanol]. After conducting the reaction for 20 minutes at room temperature, an equivalent volume of a 200 mM phosphoric acid solution was added to quench the reaction, and 90 μL of the reaction product was adsorbed onto a MultiScreen PH plate (Millipore) and rinsed with a 100 mM phosphoric acid solution. After drying the plate, 30 μL of Micro Scint-O (Packard BioScience) was added, and the cpm was measured with a scintillation counter to determine the inhibiting activity. Phospho GS Peptide2 is […]P)-Glu-Asp-Glu-Glu-Glu (SEQ ID NO:1).
# recombinant human GSK-3β, sequence (P49841 whole entry): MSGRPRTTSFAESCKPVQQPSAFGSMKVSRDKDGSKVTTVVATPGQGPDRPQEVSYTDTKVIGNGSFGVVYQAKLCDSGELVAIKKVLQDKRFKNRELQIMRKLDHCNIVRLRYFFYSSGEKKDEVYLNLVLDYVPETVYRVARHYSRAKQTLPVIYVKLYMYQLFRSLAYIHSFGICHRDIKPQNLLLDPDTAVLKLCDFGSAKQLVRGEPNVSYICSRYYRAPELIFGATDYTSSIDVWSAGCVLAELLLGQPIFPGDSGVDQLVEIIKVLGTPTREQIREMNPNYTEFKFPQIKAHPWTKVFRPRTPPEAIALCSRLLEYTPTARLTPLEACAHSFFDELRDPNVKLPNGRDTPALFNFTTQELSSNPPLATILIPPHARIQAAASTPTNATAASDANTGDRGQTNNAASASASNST
row,SMILES,IC50 [nM]
1,"N#Cc1c(-c2cccc(O)c2)[nH]c2c(=S)[nH]cnc12 [1-0698, 6-(3-hydroxyphenyl)-4-thioxo-3-hydropyrrolo[3,2-d]pyrimidine-7-carbonitrile]",10 to 30
2,N#Cc1c(-c2ccccc2)n(CCCOc2ccccc2)c2c(=S)[nH]cnc12 [1-0537],1000 to 10000
3,N#Cc1c(-c2ccccc2)n(CCCO)c2c(=O)[nH]cnc12 [1-0194],1000 to 10000
4,N#Cc1c(-c2ccccc2)[nH]c2c(=O)[nH]cnc12 [1-0007],1000 to 10000
5,N#Cc1c(-c2ccccc2)n(CC2CC2)c2c(=S)[nH]cnc12 [1-0275],1000 to 10000
6,CCOCCn1c(-c2ccccc2)c(C#N)c2nc[nH]c(=S)c21 [1-0215],1000 to 10000
7,N#Cc1cn(Cc2ccccc2)c2c(=S)[nH]cnc12 [1-0301],1000 to 10000
8,CC(C)(C)Cn1c(-c2ccccc2)c(C#N)c2nc[nH]c(=S)c21 [1-0129],1000 to 10000
9,N#Cc1c(C2CC2)n(Cc2ccccc2)c2c(=O)[nH]cnc12 [1-0303],1000 to 10000
10,"N#Cc1c(-c2ccccc2)n(CCc2nc(-c3ccccc3)no2)c2c(=S)[nH]cnc12 [1-0495, 6-phenyl-5-[2-(3-phenyl(1,2,4-oxadiazol-5-yl))ethyl]-4-thioxo-3-hydropyrrolo[3,2-d]pyrimidine-7-carbonitrile]",1000 to 10000
11,"N#Cc1c(-c2ccccc2Br)[nH]c2c(=O)[nH]cnc12 [1-1040, 6-(2-bromophenyl)-4-oxo-3-hydropyrrolo[3,2-d]pyrimidine-7-carbonitrile]",1000 to 10000
12,N#Cc1c(C=Cc2ccccc2)[nH]c2c(=O)[nH]cnc12 [1-0006],1000 to 10000
13,"N#Cc1c(-c2c(F)cccc2F)n(CCN)c2c(=S)[nH]cnc12 [1-0460, 5-(2-aminoethyl)-6-(2,6-difluorophenyl)-4-thioxo-3-hydropyrrolo[3,2-d]pyrimidine-7-carbonitrile]",1000 to 10000

# Now from value to compound:
row,IC50 [nM],SMILES
1,1000 to 10000,"Cc1ccoc1-c1c(C#N)c2nc[nH]c(=O)c2n1CCNC(=O)C(F)(F)F [2-1664, N-{2-[7-cyano-6-(3-methyl(2-furyl))-4-oxo(3-hydropyrrolo[3,2-d]pyrimidin-5-yl)]ethyl}-2,2,2-trifluoroacetamide]"
2,10 to 30,"Cc1ccoc1-c1c(C#N)c2nc[nH]c(=S)c2n1CCNC(=O)C(F)(F)F [2-0601, N-{2-[7-cyano-6-(3-methyl(2-furyl))-4-thioxo(3-hydropyrrolo[3,2-d]pyrimidin-5-yl)]ethyl}-2,2,2-trifluoroacetamide]"
3,1000 to 10000,CN(C(=O)CCn1c(-c2ccccc2)c(C#N)c2nc[nH]c(=S)c21)c1ccccc1 [3-0099]
4,< 10,"N#Cc1c(-c2ccccc2)n(CCC(=O)N2CCC(C(=O)O)CC2)c2c(=S)[nH]cnc12 [3-0231, 1-[3-(7-cyano-6-phenyl-4-thioxo-3-hydropyrrolo[3,2-d]pyrimidin-5-yl)propanoyl]piperidine-4-carboxylic acid]"
5,1000 to 10000,CC(=O)OCCCn1c(-c2ccccc2)c(C#N)c2nc[nH]c(=O)c21 [2-0519]
6,30 to 100,N#Cc1c(-c2ccccc2)n(CCNC(=O)c2ccccc2)c2c(=S)[nH]cnc12 [2-0558]
7,30 to 100,"Cn1cccc1-c1c(C#N)c2nc[nH]c(=S)c2n1CCNC(=O)C(F)(F)F [2-0604, N-{2-[7-cyano-6-(1-methylpyrrol-2-yl)-4-thioxo(3-hydropyrrolo[3,2-d]pyrimidin-5-yl)]ethyl}-2,2,2-trifluoroacetamide]"
8,30 to 100,"N#Cc1c(-c2ccco2)n(CCNC(=O)C(F)(F)F)c2c(=S)[nH]cnc12 [2-1804, N-[2-(7-cyano-6-(2-furyl)-4-thioxo(3-hydropyrrolo[3,2-d]pyrimidin-5-yl))ethyl]-2,2,2-trifluoroacetamide]"
9,30 to 100,CN(CCn1c(-c2ccccc2)c(C#N)c2nc[nH]c(=S)c21)C(=O)C(F)(F)F [2-1855]
10,30 to 100,N#Cc1c(-c2ccccc2)n(CCC(=O)N2CCOCC2)c2c(=S)[nH]cnc12 [3-0294]
